Biological target: Bifunctional protein GlmU (Escherichia coli (strain K12), UniProt P0ACC7)
Assay: Competitive inhibition of Acetyltransferase activity of Escherichia coli BL21(DE3) GlmU in presence of AcCoA

Bifunctional protein GlmU, sequence (P0ACC7 whole entry): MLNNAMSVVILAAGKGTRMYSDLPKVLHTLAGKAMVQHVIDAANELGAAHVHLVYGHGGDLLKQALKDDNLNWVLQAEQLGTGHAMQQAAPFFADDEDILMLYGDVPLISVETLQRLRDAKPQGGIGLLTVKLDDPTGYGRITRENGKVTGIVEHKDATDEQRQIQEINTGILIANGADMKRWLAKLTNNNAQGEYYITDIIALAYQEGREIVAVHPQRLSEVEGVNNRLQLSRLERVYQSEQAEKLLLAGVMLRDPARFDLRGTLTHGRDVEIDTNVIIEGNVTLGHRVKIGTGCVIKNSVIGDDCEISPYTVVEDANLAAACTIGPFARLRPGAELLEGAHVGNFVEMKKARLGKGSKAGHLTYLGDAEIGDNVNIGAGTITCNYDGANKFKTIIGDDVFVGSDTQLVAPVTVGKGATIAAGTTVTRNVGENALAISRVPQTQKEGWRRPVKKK

Row | Ki [nM] | SMILES
1 | 17 | Nc1ccc(Nc2ccc(N)cc2S(=O)(=O)O)cc1 [5-amino-2-(4-aminophenylamino)benzenesulfonic acid]
2 | 404 | O=S(=O)(Nc1ccc(S(=O)(=O)c2ccc(-c3ccc(S(=O)(=O)c4ccc(NS(=O)(=O)c5ccc(Cl)cc5)c(Cl)c4)cc3)cc2)cc1Cl)c1ccc(Cl)cc1 [Mac0008028]
3 | 23 | O=C(CSc1nnc(SCC(=O)NCCSCc2ccco2)s1)NCCSCc1ccco1 [Mac0029665]

— BindingDB's records for doi:10.1128/AAC.01572-08 (Mcmaster University, 2009)
